Experimental data from the supplement of paper PMC10307832.

Assays:
Test in all cases: relative viability (nuclei count vs DMSO), 5 days (fraction); higher = more cells survive
[1] = compound: O=C(CCCCCCC(=O)Nc1ccccc1)NO [Vorinostat] + Nc1ncn([C@H]2C[C@H](O)[C@@H](CO)O2)c(=O)n1 [Decitabine] (partner 2 µM)
Outline: (§1)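 Five library-drug doses in √10 steps were combined with a fixed anchor-drug dose, or a single drug was given alone, by pin tool to lung cancer cell lines in 1536-well plates the day after seeding. Nuclei were stained and counted after 5 days. Relative viability is the nuclei count in treated wells over that in vehicle wells, taken as the median of duplicate plates.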

[2] = compound: O=C(CCCCCCC(=O)Nc1ccccc1)NO [Vorinostat] + CC(=O)Nc1cccc(-n2c(=O)n(C3CC3)c(=O)c3c(Nc4ccc(I)cc4F)n(C)c(=O)c(C)c32)c1 [Trametinib] (partner 0.02 µM)
Outline: as §1

[3] = compound: O=C(CCCCCCC(=O)Nc1ccccc1)NO [Vorinostat] + CS(=O)(=O)N1CCN(Cc2cc3nc(-c4cccc5[nH]ncc45)nc(N4CCOCC4)c3s2)CC1 [Pictilisib] (partner 1 µM)
Outline: as §1

[4] = compound: O=C(CCCCCCC(=O)Nc1ccccc1)NO [Vorinostat] + Nc1nc2[nH]cc(CCc3ccc(C(=O)N[C@@H](CCC(=O)O)C(=O)O)cc3)c2c(=O)[nH]1 [Pemetrexed] (partner 0.2 µM)
Outline: as §1

[5] = compound: O=C(CCCCCCC(=O)Nc1ccccc1)NO [Vorinostat] + NC(=O)Nc1cc(-c2cccc(F)c2)sc1C(=O)N[C@H]1CCCNC1 [AZD7762] (partner 0.2 µM)
Outline: as §1

In the case of NCI-H661, the relative viability ([1]; first compound 0.253 µM) is reported as 0.575, the relative viability ([1]; first compound 0.8 µM) is reported as 0.468 and the relative viability ([1]; first compound 2.53 µM) is reported as 0.335. For the same cell line, the relative viability ([1]; first compound 8 µM) was 0.316, the relative viability ([2]; first compound 0.253 µM) was 0.767 and the relative viability ([2]; first compound 0.8 µM) was 0.614. For the same cell line, the relative viability ([2]; first compound 2.53 µM) was 0.303, the relative viability ([2]; first compound 8 µM) was 0.301 and the relative viability ([3]; first compound 0.253 µM) was 0.557. It also gave a relative viability ([3]; first compound 0.8 µM) of 0.696, a relative viability ([3]; first compound 2.53 µM) of 0.462 and a relative viability ([3]; first compound 8 µM) of 0.214. For the same cell line, the relative viability ([4]; first compound 0.253 µM) was 0.926, the relative viability ([4]; first compound 0.8 µM) was 0.78 and the relative viability ([4]; first compound 2.53 µM) was 0.455. The relative viability ([4]; first compound 8 µM) was 0.355.
Work on NCI-H322M yielded a relative viability ([1]; first compound 0.253 µM) of 0.679, a relative viability ([1]; first compound 0.8 µM) of 1.1 and a relative viability ([1]; first compound 2.53 µM) of 0.622. It also gave a relative viability ([1]; first compound 8 µM) of 0.373, a relative viability ([5]; first compound 0.253 µM) of 0.56 and a relative viability ([5]; first compound 0.8 µM) of 0.565. For the same cell line, the relative viability ([5]; first compound 2.53 µM) was 0.408, the relative viability ([5]; first compound 8 µM) was 0.304 and the relative viability ([2]; first compound 0.253 µM) was 0.595. The relative viability ([2]; first compound 0.8 µM) was 0.501, the relative viability ([2]; first compound 2.53 µM) was 0.552 and the relative viability ([2]; first compound 8 µM) was 0.408. For the same cell line, the relative viability ([3]; first compound 0.253 µM) was 0.537, the relative viability ([3]; first compound 0.8 µM) was 0.541 and the relative viability ([3]; first compound 2.53 µM) was 0.386. It also gave a relative viability ([3]; first compound 8 µM) of 0.317, a relative viability ([4]; first compound 0.253 µM) of 0.764 and a relative viability ([4]; first compound 0.8 µM) of 0.603. The relative viability ([4]; first compound 2.53 µM) was 0.569 and the relative viability ([4]; first compound 8 µM) was 0.355.
HCC-15 was tested, and the relative viability ([1]; first compound 0.253 µM) was 0.69, the relative viability ([1]; first compound 0.8 µM) was 0.521 and the relative viability ([1]; first compound 2.53 µM) was 0.2. It also gave a relative viability ([1]; first compound 8 µM) of 0.0924, a relative viability ([5]; first compound 0.253 µM) of 1.39 and a relative viability ([5]; first compound 0.8 µM) of 1.11. It also gave a relative viability ([5]; first compound 2.53 µM) of 1.06, a relative viability ([5]; first compound 8 µM) of 0.363 and a relative viability ([2]; first compound 0.253 µM) of 0.377. For the same cell line, the relative viability ([2]; first compound 0.8 µM) was 0.338, the relative viability ([2]; first compound 2.53 µM) was 0.147 and the relative viability ([2]; first compound 8 µM) was 0.0834. For the same cell line, the relative viability ([3]; first compound 0.253 µM) was 0.811, the relative viability ([3]; first compound 0.8 µM) was 0.608 and the relative viability ([3]; first compound 2.53 µM) was 0.472. It also gave a relative viability ([3]; first compound 8 µM) of 0.108, a relative viability ([4]; first compound 0.253 µM) of 0.219 and a relative viability ([4]; first compound 0.8 µM) of 0.216. It also gave a relative viability ([4]; first compound 2.53 µM) of 0.172 and a relative viability ([4]; first compound 8 µM) of 0.099.
Work on NCI-H727 yielded a relative viability ([1]; first compound 0.253 µM) of 0.902, a relative viability ([1]; first compound 0.8 µM) of 0.82 and a relative viability ([1]; first compound 2.53 µM) of 0.707. The relative viability ([1]; first compound 8 µM) was 0.522, the relative viability ([5]; first compound 0.253 µM) was 0.514 and the relative viability ([5]; first compound 0.8 µM) was 0.874. For the same cell line, the relative viability ([5]; first compound 2.53 µM) was 0.617, the relative viability ([5]; first compound 8 µM) was 0.398 and the relative viability ([2]; first compound 0.253 µM) was 0.369. The relative viability ([2]; first compound 0.8 µM) was 0.392, the relative viability ([2]; first compound 2.53 µM) was 0.27 and the relative viability ([2]; first compound 8 µM) was 0.267. For the same cell line, the relative viability ([3]; first compound 0.253 µM) was 0.458, the relative viability ([3]; first compound 0.8 µM) was 0.455 and the relative viability ([3]; first compound 2.53 µM) was 0.243. For the same cell line, the relative viability ([3]; first compound 8 µM) was 0.188.
NCI-H2009 was tested, and the relative viability ([1]; first compound 0.253 µM) was 0.416, the relative viability ([1]; first compound 0.8 µM) was 0.354 and the relative viability ([1]; first compound 2.53 µM) was 0.273. For the same cell line, the relative viability ([1]; first compound 8 µM) was 0.0862, the relative viability ([2]; first compound 0.253 µM) was 0.336 and the relative viability ([2]; first compound 0.8 µM) was 0.311. It also gave a relative viability ([2]; first compound 2.53 µM) of 0.237, a relative viability ([2]; first compound 8 µM) of 0.119 and a relative viability ([3]; first compound 0.253 µM) of 1.3. The relative viability ([3]; first compound 0.8 µM) was 0.747, the relative viability ([3]; first compound 2.53 µM) was 0.346 and the relative viability ([3]; first compound 8 µM) was 0.0949. For the same cell line, the relative viability ([4]; first compound 0.253 µM) was 0.993, the relative viability ([4]; first compound 0.8 µM) was 0.955 and the relative viability ([4]; first compound 2.53 µM) was 0.666. The relative viability ([4]; first compound 8 µM) was 0.131.
Work on NCI-H2228 yielded a relative viability ([2]; first compound 0.253 µM) of 0.67, a relative viability ([2]; first compound 0.8 µM) of 0.464 and a relative viability ([2]; first compound 2.53 µM) of 0.219. The relative viability ([2]; first compound 8 µM) was 0.101, the relative viability ([3]; first compound 0.253 µM) was 0.649 and the relative viability ([3]; first compound 0.8 µM) was 0.223. For the same cell line, the relative viability ([3]; first compound 2.53 µM) was 0.142, the relative viability ([3]; first compound 8 µM) was 0.138 and the relative viability ([4]; first compound 0.253 µM) was 0.336. The relative viability ([4]; first compound 0.8 µM) was 0.297, the relative viability ([4]; first compound 2.53 µM) was 0.252 and the relative viability ([4]; first compound 8 µM) was 0.132.
For NCI-H2342, the relative viability ([1]; first compound 0.253 µM) was 0.58, the relative viability ([1]; first compound 0.8 µM) was 0.715 and the relative viability ([1]; first compound 2.53 µM) was 0.529. For the same cell line, the relative viability ([1]; first compound 8 µM) was 0.391, the relative viability ([5]; first compound 0.253 µM) was 0.431 and the relative viability ([5]; first compound 0.8 µM) was 0.575. It also gave a relative viability ([5]; first compound 2.53 µM) of 0.347, a relative viability ([5]; first compound 8 µM) of 0.254 and a relative viability ([2]; first compound 0.253 µM) of 0.703. For the same cell line, the relative viability ([2]; first compound 0.8 µM) was 0.774, the relative viability ([2]; first compound 2.53 µM) was 0.685 and the relative viability ([2]; first compound 8 µM) was 0.484. For the same cell line, the relative viability ([4]; first compound 0.253 µM) was 0.834, the relative viability ([4]; first compound 0.8 µM) was 0.832 and the relative viability ([4]; first compound 2.53 µM) was 0.68. For the same cell line, the relative viability ([4]; first compound 8 µM) was 0.306.
SW 900 was tested, and the relative viability ([1]; first compound 0.253 µM) was 0.34, the relative viability ([1]; first compound 0.8 µM) was 0.351 and the relative viability ([1]; first compound 2.53 µM) was 0.23. It also gave a relative viability ([1]; first compound 8 µM) of 0.159, a relative viability ([5]; first compound 0.253 µM) of 0.606 and a relative viability ([5]; first compound 0.8 µM) of 0.418. The relative viability ([5]; first compound 2.53 µM) was 0.229, the relative viability ([5]; first compound 8 µM) was 0.0892 and the relative viability ([2]; first compound 0.253 µM) was 0.739. For the same cell line, the relative viability ([2]; first compound 0.8 µM) was 0.703, the relative viability ([2]; first compound 2.53 µM) was 0.249 and the relative viability ([2]; first compound 8 µM) was 0.129. For the same cell line, the relative viability ([4]; first compound 0.253 µM) was 0.502, the relative viability ([4]; first compound 0.8 µM) was 0.483 and the relative viability ([4]; first compound 2.53 µM) was 0.308. The relative viability ([4]; first compound 8 µM) was 0.147.
For IA-LM, the relative viability ([3]; first compound 0.253 µM) was 0.309, the relative viability ([3]; first compound 0.8 µM) was 0.25 and the relative viability ([3]; first compound 2.53 µM) was 0.114. The relative viability ([3]; first compound 8 µM) was 0.0475.
NCI-H2023 showed a relative viability ([1]; first compound 0.253 µM) of 0.242, a relative viability ([1]; first compound 0.8 µM) of 0.177 and a relative viability ([1]; first compound 2.53 µM) of 0.11. It also gave a relative viability ([1]; first compound 8 µM) of 0.0687, a relative viability ([2]; first compound 0.253 µM) of 0.65 and a relative viability ([2]; first compound 0.8 µM) of 0.422. The relative viability ([2]; first compound 2.53 µM) was 0.184, the relative viability ([2]; first compound 8 µM) was 0.07 and the relative viability ([3]; first compound 0.253 µM) was 0.221. The relative viability ([3]; first compound 0.8 µM) was 0.214, the relative viability ([3]; first compound 2.53 µM) was 0.128 and the relative viability ([3]; first compound 8 µM) was 0.0818. For the same cell line, the relative viability ([4]; first compound 0.253 µM) was 0.233, the relative viability ([4]; first compound 0.8 µM) was 0.182 and the relative viability ([4]; first compound 2.53 µM) was 0.103. For the same cell line, the relative viability ([4]; first compound 8 µM) was 0.067.
NCI-H1563 showed a relative viability ([3]; first compound 0.253 µM) of 0.682, a relative viability ([3]; first compound 0.8 µM) of 0.637 and a relative viability ([3]; first compound 2.53 µM) of 0.68. For the same cell line, the relative viability ([3]; first compound 8 µM) was 0.592, the relative viability ([4]; first compound 0.253 µM) was 0.877 and the relative viability ([4]; first compound 0.8 µM) was 0.651. The relative viability ([4]; first compound 2.53 µM) was 0.708 and the relative viability ([4]; first compound 8 µM) was 0.384.
